Source: US20050202559A1, “Cancer treatment by metabolic modulations” (priority 2002, published 2005)
pIC50: −log10 of the molar value.

How the values were obtained:
GSK-3 [1] = conditions: read-out: concentration that inhibits GSK-3 to half maximal activity; cited from earlier work
GSK-3 [2] = conditions: cited from earlier work
HeLa cells [3] = experiment: Adenovirus infection, Trypan Blue viability cell counts and morphology; assay type: cell-based, human; conditions: roscovitine-treated versus untreated
Protocol: (§1) Cultured cells lines were seeded on six or twelve well tissue culture plates. When they reached 70-85% confluence, cells were infected with various amounts of recombinant GL adenovirus or control adenovirus. Adenovirus was added to each well in 300 μl medium and incubated for 2 hours at 37° C., 5% CO2. After incubation, 1.5 ml of medium was added and incubated at 37° C., 5% CO2. The medium was changed every day. At various time points post-infection, viable cells were counted using Trypan Blue and the remaining cells were collected and frozen for subsequent glycogen measurements.
Trypan Blue Viability Cell Counts: Trypan Blue (0.4%, Gibco) was used to stain dead and dying cells. Cells were removed from the tissue culture plates with 0.25% Trypsin-EDTA (Gibco #25200-056) and resuspended in 1 ml phosphate buffered saline (PBS). Manual cell counts were performed with a Neubauer hemocytometer.
Roscovitine Studies: Roscovitine (Calbiochem #557362), [2-(R)-(1-ethyl-2-hydroxyethylamino)-6-benzyl amino-9-isopropylpurine], is a potent and selective inhibitor of the cyclin-dependent kinases Cdk2 and Cdc2. Roscovitine stock solution was prepared in dimethylsulfoxide (DMSO) and stored at −20° C. until use. […]
Cell viability after viral infection was assessed using the Trypan Blue exclusion assay. Cells stained with Trypan Blue and viable cells are counted using a Neubauer hemocytometer. […]

HeLa cells [4] = experiment: Glycogen assay (glucoamylase hydrolysis, glucose Trinder reagent); assay type: cell-based, human; conditions: uninfected control HeLa cells, 35 μM roscovitine
Protocol: as §1
Glycogen Assay: Enzymatic glycogen hydrolysis to glucose was performed according to Keppler and Decker with some modifications (Keppler and Decker, 1984 in: Methods of Enzymatic Analysis, 3rd ed. (Bergmeyer, H. U. Bergmeyer, J., and Grab, M. Eds.), Vol. 6, pp. 11-18, VCH, New York.). In brief, frozen cell pellets were subjected to three rounds of freezing and thawing to disrupt cell membranes. Cell pellets were resuspended in 200 μl 250 mU glucoamylase in 0.2 M sodium acetate buffer, pH 4.8. Lysates were incubated for two hours at 45° C. with shaking. Lysates were cleared by centrifugation at 2500 rpm for 10 min. […] Glucose was then determined with the glucose Trinder colorometric reagent (Sigma, 315-500). The intensity of the color reaction was measured at 505nm using a Molecular Devices VERSAmax microplate reader. […]

[Be+2] [beryllium]
pIC50 (GSK-3 [1]): 2.22

[Zn+2] [zinc]
concentration at which GSK-3 is inhibited in cell culture (GSK-3 [2]): 15 mM

CC[C@H](CO)Nc1nc(NCc2ccccc2)c2ncn(C(C)C)c2n1 [roscovitine, 2-(R)-(1-ethyl-2-hydroxyethylamino)-6-benzyl amino-9-isopropylpurine]
cell viability of AdGL-infected cells (HeLa cells [3]): significantly decreased
glycogen accumulation (HeLa cells [4]): no significant increases
